Laboratory results reported in PubChem BioAssay (NCI).
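Method: 48-hour compound exposure of cells in 96-well plates, five concentrations, linear interpolation of endpoints. GI50 = concentration required for 50% inhibition of growth. Definition used: TGI = concentration required for complete inhibition of growth.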

Columns and labels:
Assay in all cases: growth of human tumour cells (NCI), 48 h
[1] = tested on: 786-0 renal
[2] = tested on: A498 renal
[3] = tested on: A549 NSCLC
[4] = tested on: ACHN renal
[5] = tested on: BT-549 breast
[6] = tested on: CAKI-1 renal
[7] = tested on: CCRF-CEM leukemia
[8] = tested on: COLO 205 colon
[9] = tested on: DU-145 prostate
[10] = tested on: EKVX NSCLC
[11] = tested on: HCC-2998 colon
[12] = tested on: HCT-116 colon
[13] = tested on: HCT-15 colon
[14] = tested on: HL-60(TB) leukemia
[15] = tested on: HOP-62 NSCLC
[16] = tested on: HOP-92 NSCLC
[17] = tested on: HS 578T breast
[18] = tested on: HT29 colon
[19] = tested on: IGROV1 ovarian
[20] = tested on: K-562 leukemia
[21] = tested on: KM12 colon
[22] = tested on: LOX IMVI melanoma
[23] = tested on: M14 melanoma
[24] = tested on: MALME-3M melanoma
[25] = tested on: MCF7 breast
[26] = tested on: MDA-MB-231 breast
[27] = tested on: MDA-MB-435
[28] = tested on: MDA-MB-468 breast
[29] = tested on: MOLT-4 leukemia
[30] = tested on: NCI-H226 lung
[31] = tested on: NCI-H23 lung
[32] = tested on: NCI-H460 lung
[33] = tested on: NCI-H522 lung
[34] = tested on: OVCAR-3 ovarian
[35] = tested on: OVCAR-4 ovarian
[36] = tested on: OVCAR-5 ovarian
[37] = tested on: OVCAR-8 ovarian
[38] = tested on: PC-3 prostate
[39] = tested on: RPMI-8226 leukemia
[40] = tested on: RXF 393 renal
[41] = tested on: SF-268 CNS
[42] = tested on: SF-295 CNS
[43] = tested on: SF-539 CNS
[44] = tested on: SK-MEL-2 melanoma
[45] = tested on: SK-MEL-28 melanoma
[46] = tested on: SK-MEL-5 melanoma
[47] = tested on: SK-OV-3 ovarian
[48] = tested on: SN12C renal
[49] = tested on: SNB-19 CNS
[50] = tested on: SNB-75 CNS
[51] = tested on: SR leukemia
[52] = tested on: SW-620 colon
[53] = tested on: T-47D breast
[54] = tested on: TK-10 renal
[55] = tested on: U251 CNS
[56] = tested on: UACC-257 melanoma
[57] = tested on: UACC-62 melanoma
[58] = tested on: UO-31 renal

CCCCOc1ccc(NC(=O)c2sc3nc(C)ccc3c2N)cc1 gave a GI50 [1] of 1.86 µM, a TGI [1] of 4.21 µM and a GI50 [2] of 14.9 µM. For the same compound, the TGI [2] was 28.5 µM, the GI50 [3] was 3.22 µM and the TGI [3] was 9.73 µM. It also gave a GI50 [4] of 2.72 µM, a TGI [4] of 12.7 µM and a GI50 [5] of 2.56 µM. For the same compound, the TGI [5] was 10.2 µM, the GI50 [6] was 3.47 µM and the TGI [6] was 16.7 µM. It also gave a GI50 [7] of 54 µM, a TGI [7] of over 100 µM and a GI50 [8] of 19.3 µM. For the same compound, the TGI [8] was 54.4 µM, the GI50 [9] was 5.29 µM and the TGI [9] was 36.1 µM. The GI50 [10] was 2.17 µM, the TGI [10] was 14.7 µM and the GI50 [11] was 4.73 µM. It also gave a TGI [11] of 20.6 µM, a GI50 [12] of 2.28 µM and a TGI [12] of 6.04 µM. It also gave a GI50 [13] of 3.87 µM, a TGI [13] of 17.7 µM and a GI50 [14] of 49.9 µM. For the same compound, the TGI [14] was over 100 µM, the GI50 [15] was 10.6 µM and the TGI [15] was 28 µM. For the same compound, the GI50 [16] was 5.71 µM, the TGI [16] was 22.8 µM and the GI50 [17] was 5.97 µM. The TGI [17] was 38.7 µM, the GI50 [18] was 6.83 µM and the TGI [18] was 26.3 µM. It also gave a GI50 [19] of 4.1 µM, a TGI [19] of 17.4 µM and a GI50 [20] of 2.85 µM. The TGI [20] was over 100 µM, the GI50 [21] was 3.96 µM and the TGI [21] was 18.5 µM. The GI50 [22] was 2.36 µM, the TGI [22] was 6.68 µM and the GI50 [23] was 12.6 µM. For the same compound, the TGI [23] was 35.2 µM, the GI50 [24] was 5.31 µM and the TGI [24] was 19.4 µM. For the same compound, the GI50 [25] was 3.07 µM, the TGI [25] was 16.4 µM and the GI50 [26] was 2.93 µM. The TGI [26] was 10.6 µM, the GI50 [27] was 4.96 µM and the TGI [27] was 22.1 µM. The GI50 [28] was 1.23 µM, the TGI [28] was 3.29 µM and the GI50 [29] was 7.46 µM. It also gave a TGI [29] of over 100 µM, a GI50 [30] of 2.89 µM and a TGI [30] of 18.7 µM. For the same compound, the GI50 [31] was 1.5 µM, the TGI [31] was 3.56 µM and the GI50 [32] was 3.23 µM. The TGI [32] was 10.9 µM, the GI50 [33] was 2.88 µM and the TGI [33] was 15.2 µM. The GI50 [34] was 2.8 µM, the TGI [34] was 8.65 µM and the GI50 [35] was 1.49 µM. The TGI [35] was 5.97 µM, the GI50 [36] was 4.61 µM and the TGI [36] was 28.8 µM. The GI50 [37] was 2.61 µM, the TGI [37] was 6.67 µM and the GI50 [38] was 7.74 µM. For the same compound, the TGI [38] was over 100 µM, the GI50 [39] was 8.14 µM and the TGI [39] was over 100 µM. For the same compound, the GI50 [40] was 2.98 µM, the TGI [40] was 12.9 µM and the GI50 [41] was 6.39 µM. For the same compound, the TGI [41] was 29.9 µM, the GI50 [42] was 2.59 µM and the TGI [42] was 10.3 µM. It also gave a GI50 [43] of 1.89 µM, a TGI [43] of 3.77 µM and a GI50 [44] of 8.95 µM. It also gave a TGI [44] of 31.4 µM, a GI50 [45] of 12.2 µM and a TGI [45] of 29.8 µM. For the same compound, the GI50 [46] was 2 µM, the TGI [46] was 10.2 µM and the GI50 [47] was 6.36 µM. For the same compound, the TGI [47] was 20 µM, the GI50 [48] was 4.09 µM and the TGI [48] was 22.8 µM. It also gave a GI50 [49] of 3.47 µM, a TGI [49] of 13.8 µM and a GI50 [50] of 2.39 µM. The TGI [50] was 9.02 µM, the GI50 [51] was 3.3 µM and the TGI [51] was over 100 µM. For the same compound, the GI50 [52] was 11.4 µM, the TGI [52] was 31 µM and the GI50 [53] was 2.82 µM. It also gave a TGI [53] of 25.7 µM, a GI50 [54] of 5.57 µM and a TGI [54] of 20.4 µM. For the same compound, the GI50 [55] was 3.41 µM, the TGI [55] was 11.1 µM and the GI50 [56] was 10 µM. It also gave a TGI [56] of 44.6 µM, a GI50 [57] of 6.89 µM and a TGI [57] of 22.9 µM. It also gave a GI50 [58] of 2.32 µM and a TGI [58] of 11.2 µM.
Compound C=C1CC[C@@H]2[C@]3(C)COC(c4cn[nH]c4-c4ccccc4)O[C@@H]3CC[C@@]2(C)[C@@H]1C/C=C1/C(=O)OCC1O (some centres not stated) has a GI50 [1] of 18.8 µM, a TGI [1] of 43 µM and a GI50 [2] of 30.9 µM. It also gave a TGI [2] of over 100 µM, a GI50 [3] of 17.3 µM and a TGI [3] of 51.8 µM. It also gave a GI50 [4] of 17.6 µM, a TGI [4] of 69.1 µM and a GI50 [5] of 15.2 µM. For the same compound, the TGI [5] was 43.3 µM, the GI50 [6] was 11.6 µM and the TGI [6] was 32.2 µM. The GI50 [7] was 4.83 µM, the TGI [7] was 42.5 µM and the GI50 [8] was 15 µM. For the same compound, the TGI [8] was 28.2 µM, the GI50 [9] was 13.8 µM and the TGI [9] was 35.4 µM. For the same compound, the GI50 [10] was 14.5 µM, the TGI [10] was 32.7 µM and the GI50 [11] was 15.8 µM. It also gave a TGI [11] of 29.3 µM, a GI50 [12] of 12.2 µM and a TGI [12] of 32.2 µM. The GI50 [13] was 13.2 µM, the TGI [13] was 27.2 µM and the GI50 [14] was 13.3 µM. For the same compound, the TGI [14] was 67.5 µM, the GI50 [15] was 16.1 µM and the TGI [15] was 35.6 µM. It also gave a GI50 [16] of 9.14 µM, a TGI [16] of 30.6 µM and a GI50 [17] of 9.81 µM. It also gave a TGI [17] of 54.7 µM, a GI50 [18] of 15.4 µM and a TGI [18] of 32.7 µM. For the same compound, the GI50 [19] was 17 µM, the TGI [19] was 42.8 µM and the GI50 [20] was 12.8 µM. The TGI [20] was over 100 µM, the GI50 [21] was 11.3 µM and the TGI [21] was 54.9 µM. For the same compound, the GI50 [22] was 10.9 µM, the TGI [22] was 25 µM and the GI50 [23] was 14.4 µM. It also gave a TGI [23] of 28.2 µM, a GI50 [24] of 13.2 µM and a TGI [24] of 30.5 µM. It also gave a GI50 [25] of 10.5 µM, a TGI [25] of 34.9 µM and a GI50 [26] of 15.8 µM. It also gave a TGI [26] of 32.8 µM, a GI50 [27] of 13.5 µM and a TGI [27] of 29.8 µM. For the same compound, the GI50 [28] was 9 µM, the TGI [28] was 32.6 µM and the GI50 [29] was 3.83 µM. It also gave a TGI [29] of 54.5 µM, a GI50 [30] of 16.1 µM and a TGI [30] of 37.8 µM. The GI50 [31] was 13.6 µM, the TGI [31] was 26.5 µM and the GI50 [32] was 15.3 µM. The TGI [32] was 32.3 µM, the GI50 [33] was 14.1 µM and the TGI [33] was 29.8 µM. For the same compound, the GI50 [34] was 11.1 µM, the TGI [34] was 37.5 µM and the GI50 [35] was 15.2 µM. The TGI [35] was 52 µM, the GI50 [36] was 19.2 µM and the TGI [36] was 37.7 µM. It also gave a GI50 [37] of 18 µM, a TGI [37] of 49.6 µM and a GI50 [38] of 12.2 µM. The TGI [38] was over 100 µM, the GI50 [39] was 8.39 µM and the TGI [39] was 93.8 µM. For the same compound, the GI50 [40] was 8.5 µM, the TGI [40] was 21.7 µM and the GI50 [41] was 18.5 µM. The TGI [41] was 75.4 µM, the GI50 [42] was 15.4 µM and the TGI [42] was 30.5 µM. The GI50 [43] was 15.6 µM, the TGI [43] was 30.3 µM and the GI50 [44] was 14.8 µM. It also gave a TGI [44] of 28.7 µM, a GI50 [45] of 13.7 µM and a TGI [45] of 26.8 µM. The GI50 [46] was 12.4 µM, the TGI [46] was 24.8 µM and the GI50 [47] was 22 µM. For the same compound, the TGI [47] was 63.5 µM, the GI50 [48] was 22 µM and the TGI [48] was 70 µM. The GI50 [49] was 15 µM, the TGI [49] was 28.5 µM and the GI50 [50] was 10.4 µM. The TGI [50] was 35.1 µM, the GI50 [51] was 21.2 µM and the TGI [51] was over 100 µM. It also gave a GI50 [52] of 14.4 µM, a TGI [52] of 33.3 µM and a GI50 [53] of 20.2 µM. It also gave a TGI [53] of over 100 µM, a GI50 [54] of 20.2 µM and a TGI [54] of 51.7 µM. For the same compound, the GI50 [55] was 14.3 µM, the TGI [55] was 28.6 µM and the GI50 [56] was 15.6 µM. The TGI [56] was 36.1 µM, the GI50 [57] was 13.5 µM and the TGI [57] was 28.7 µM. For the same compound, the GI50 [58] was 11.5 µM and the TGI [58] was 28 µM.
